Experimental data reported in patent US20260209222A1, “CBL-B MODULATORS AND USES THEREOF” (Nimbus Clio, Inc., priority 2022, published 2026).

Columns and labels:
[1] = target: T1, Recombinant human Cbl-b (aa 36-427) (Homo sapiens, UniProt Q13191); assay: Cbl-b Biochemical Assay (TR-FRET); details: 6 nM Cbl-b, 1-2.5 nM Src-Zap70, 0.5 mM ATP; HTRF signal at 520 nm
T1 construct: Recombinant human Cbl-b (aa 36-427) was expressed in E coli; biotin (biotinylated in vitro); made in house; host or cells: E. coli
Protocol: Cbl-b Biochemical Assay (TR-FRET)
Recombinant human Cbl-b (aa 36-427) was expressed in E coli, purified and biotinylated in vitro. The protein was diluted to 12 nM in freshly prepared assay buffer consisting of 50 mM HEPES, pH 7.0, 100 mM NaCl, 5 mM MgCl2, 0.01% Triton-X 100, 0.01% BSA and 1 mM DTT. Recombinant human Src (aa 254-536)-GSSGSS-Zap-70 (aa 281-297) fusion protein was expressed in E coli and purified. Protein was diluted in assay buffer to 2-5 nM and supplemented with ATP to 1 mM. Fluorescein-BODIPY labeled UBED2D(C85K)-Ub was prepared by conjugating ubiquitin (Ub) labeled at its N-terminus with Fluorescein-BODIPY maleimide (ThermoFisher Catalog no B10250) to E coli expressed and purified UBED2D(C85K) [see Dou et al Nature Structural and Molecular Biology 8: 982-987, 2013]. Recombinant human UBE2D2(C85K) was expressed in E coli, purified and ubiquitinated and Bodipy labelled in vitro. Protein was diluted to 200 nM in assay buffer without MgCl2 (or Cisbio PPI buffer). Streptavidin-Terbium was added to 2 nM and EDTA to 10 mM, to provide a binding assay mix. Compounds were dissolved in DMSO and diluted to prepare a ten-point dilution series. 100 nl of each compound concentration was dispensed in duplicate in a 384 well black assay plate using acoustic dispensing. Wells for maximum signal controls received 100 nl of DMSO only and wells for minimum signal controls received 100 nl of a reference inhibitor compound at a final assay concentration of 100 mM to produce 100% inhibition. 5 μl of diluted Cbl-b enzyme was added to all wells of the assay plate and incubated at RT for 30-60 min. The enzyme assay was initiated by addition of 5 μl of Src-Zap/ATP mix to all wells, and the plate incubated at RT for 60 min. The enzyme reaction was terminated and the binding reaction was initiated by adding 10p of binding assay mix to all wells and incubating the plate at RT for 60 min prior to assay read. Final assay conditions consisted of 6 nM Cbl-b, 1-2.5 nM Src-Zap70, 0.5 mM ATP, 1% (v/v) DMSO (enzyme reaction) and 100 nM UBE2D2(C85K)-Ub-FL-BODIPY, 5 mM EDTA, 1 nM Streptavidin-Tb (binding reaction). The HTRF assay signal was measured at 520 nm on an Envision plate reader, with reference signal at 485 or 620 nm. Data was normalized using maximum and minimum assay controls: % Inhibition=100−(100*((maximum control)−unknown)/(maximum control−minimum control)). A 4-parameter dose-response equation was used to fit the normalized dose-response data and derive an IC50 for test compounds.

[2] = test system: Recombinant human c-Cbl (aa 47-435); assay: c-Cbl Biochemical Assay (TR-FRET); details: ratio from the Cbl-b and c-Cbl TR-FRET biochemical assays
Protocol: c-Cbl Biochemical Assay (TR-FRET)
Recombinant human c-Cbl (aa 47-435) was expressed in E coli, purified and biotinylated in vitro. The protein was diluted to 12 nM in freshly prepared assay buffer consisting of 50 mM HEPES, pH 7.0, 100 mM NaCl, 5 mM MgCl2, 0.01% Triton-X 100, 0.01% BSA and 1 mM DTT. Recombinant human Src (aa 254-536)-GSSGSS-Zap-70 (aa 281-297) fusion protein was expressed in E coli and purified. Protein was diluted in assay buffer to 5-20 nM and ATP was added to 1 mM. Recombinant human UBE2D2(C85K) was expressed in E coli, purified and ubiquitinated and Bodipy labelled in vitro. Protein was diluted to 200 nM in assay buffer without MgCl2 (or Cisbio PPI buffer). Streptavidin-Terbium was added to 2 nM and EDTA to 10 mM, to provide a binding assay mix. Compounds were dissolved in DMSO and diluted to prepare a ten-point half log dilution series. 100 nl of each compound concentration was dispensed in duplicate in a 384 well black assay plate using acoustic dispensing. Wells for maximum signal controls received 100 nl of DMSO only and wells for minimum controls received 100 nl of a reference inhibitor compound at a final assay concentration of 100 mM to produce 100% inhibition. 5 μl of diluted c-Cbl enzyme was added to all wells of the assay plate and incubated at RT for 30 min. The enzyme assay was initiated by addition of 5 d of Src-Zap/ATP mix to all wells, and the plate incubated at RT for 60-90 min. The enzyme reaction was terminated and the binding reaction was initiated by adding 10p of binding assay mix to all wells and incubating the plate at RT for 60 min prior to assay read. Final assay conditions consisted of 6 nM c-Cbl. 2.5-10 nM Src-Zap70, 0.5 mM ATP. 1% (v/v) DMSO (enzyme reaction) and 100 nM UBE2D2(C85K)-Ub-FL-BODIPY, 5 mM EDTA, 1 nM Streptavidin-Tb (binding reaction). The HTRF assay signal was measured at 520 nm on an Envision plate reader, with reference signal at 485 or 620 nm. Data was normalized using maximum and minimum assay controls: % Inhibition=100−(100*((maximum control)−unknown)/(maximum control−minimum control)). A 4-parameter dose-response equation was used to fit the normalized dose-response data and derive an IC50 for test compounds.

T1 sequence (Q13191 36-427): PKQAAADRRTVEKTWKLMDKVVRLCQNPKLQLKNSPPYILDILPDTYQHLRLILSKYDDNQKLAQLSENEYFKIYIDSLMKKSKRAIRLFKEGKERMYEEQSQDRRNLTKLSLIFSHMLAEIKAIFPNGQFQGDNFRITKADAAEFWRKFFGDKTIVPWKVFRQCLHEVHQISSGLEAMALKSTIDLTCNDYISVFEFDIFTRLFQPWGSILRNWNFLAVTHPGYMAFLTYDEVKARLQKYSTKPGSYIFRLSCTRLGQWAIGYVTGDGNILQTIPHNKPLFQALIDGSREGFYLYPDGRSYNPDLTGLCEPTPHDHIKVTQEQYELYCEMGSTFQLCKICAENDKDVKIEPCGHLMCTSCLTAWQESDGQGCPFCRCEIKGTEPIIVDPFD

Structure (SMILES)	IC50 [1]	Cbl-b/c-Cbl Selectivity [2]
Cn1cnnc1-c1ccc(C(F)(F)F)cc1-c1cc(NCCCC#N)nc(-c2nc3cc(CNCC4CC4)cc(C(F)(F)F)c3o2)c1 [I-54, 4-{[6-(5-{[(cyclopropylmethyl)amino]methyl}-7-(trifluoromethyl)-1,3-benzoxazol-2-yl)-4-[2-(4-methyl-1,2,4-triazol-3-yl)-5-(trifluoromethyl)phenyl]pyridin-2-yl]amino}butanenitrile; formic acid]	> 5 µM	7
Cn1cnnc1-c1ccccc1-c1cc(NCCCC#N)nc(-c2nc3cc(CNCC(C)(C)O)cc(C(F)(F)F)c3o2)c1 [I-55, 4-((6-(5-(((2-Hydroxy-2-methylpropyl)amino)methyl)-7-(trifluoromethyl)benzo[d]oxazol-2-yl)-4-(2-(4-methyl-4H-1,2,4-triazol-3-yl)phenyl)pyridin-2-yl)amino)butanenitrile]	< 0.2 µM	11
C[C@H]1CCCN(Cc2cc(C(F)(F)F)c3oc(-c4cccc([C@@H](c5nncn5C)[C@H]5C[C@@H](C(F)(F)F)C5)c4)nc3c2)C1 [I-56]	> 5 µM	5
C[C@H]1CCCN(Cc2cc(C(F)(F)F)c3oc(-c4cccc([C@H](c5nncn5C)[C@H]5C[C@H](C(F)(F)F)C5)c4)nc3c2)C1 [I-57]	> 5 µM	2
C[C@H]1CCCN(Cc2cc(C(F)(F)F)c3oc(-c4cccc([C@@H](c5nncn5C)[C@H]5C[C@H](C(F)(F)F)C5)c4)nc3c2)C1 [I-58]	> 5 µM	4
Cn1cnnc1[C@H](c1cccc(-c2nc3cc(CN4CCC5(CCC5)C4)cc(C(F)(F)F)c3o2)c1)[C@H]1C[C@@H](C(F)(F)F)C1 [I-60]	> 5 µM	1
Cn1cnnc1[C@H](c1cccc(-c2nc3cc(CN4CCC5(CCC5)C4)cc(C(F)(F)F)c3o2)c1)[C@H]1C[C@H](C(F)(F)F)C1 [I-62]	> 5 µM	2
Cn1cnnc1[C@@H](c1cccc(-c2nc3cc(CN4CCC5(CCC5)C4)cc(C(F)(F)F)c3o2)c1)[C@H]1C[C@@H](C(F)(F)F)C1 [I-63]	0.2 to 5 µM	13
